Source: patent US12552785B2, “Pyrazolo[1,5-α]pyridine derivative, preparation method therefor, and composition and use thereof” (SHENZHEN ZHONGGE BIOLOGICAL TECHNOLOGY CO., LTD., priority 2020, dated 2026)

What was measured:
RET = RET (Homo sapiens, UniProt P07949); experiment: HTRF method for testing the inhibitory activity of compounds against RET; type: biochemical; conditions: IC50 by nonlinear regression, read-out: RET kinase activity
Procedure: (a) In Vitro Screening Experiment-HTRF Method for Testing the Inhibitory Activity of Compounds Against RET Experimental Procedure: 1. […] 2. The test compound (5 mM stock solution) was diluted 5 folds to 1 mM with 100% dimethyl sulfoxide; the compound was diluted into 10 concentrations at an equal ratio of 1:3 in a 384-well dilution plate. 3. 0.2 μL of the serially diluted compound was added to a 384-well plate using an Echo 550 pipetting system, 2 replicate wells for each concentration, and the final concentration of dimethyl sulfoxide was 0.5% (v/v). […] 6. […] The reaction solution was centrifuged at 1000 g for 30 s, and then sealed, and incubated at room temperature for 30 min. 8. […] 10. […] 11. […] IC50 was calculated with software GraphPad 6.0 by fitting inhibition values and logarithms of compound concentrations to a nonlinear regression (dose response−variable slope).

VEGFR2 = VEGFR2 (Homo sapiens, UniProt P35968); experiment: HTRF method for testing the inhibitory activity of compounds against VEGFR2; type: biochemical; conditions: IC50 by nonlinear regression, read-out: VEGFR2 kinase activity
Procedure: (b) In Vitro Screening Experiment—HTRF Method for Testing the Inhibitory Activity of Compounds Against VEGFR2 Experimental Procedure: 1. […] The test compound (5 mM stock solution) was diluted 5 folds to 1 mM with 100% dimethyl sulfoxide; the compound was diluted into 10 concentrations at an equal ratio of 1:3 in a 384-well dilution plate. 3. […] 6. […] The reaction solution was centrifuged at 1000 g for 30 s, and then sealed, and incubated at room temperature for 40 min. 8. […] 10. […] 11. […] 12. IC50 was calculated with software GraphPad 6.0 by fitting inhibition values and logarithms of compound concentrations to a nonlinear regression (dose response−variable slope).

Ba/F3-KIF5B-RET cell = molecular target: T1, Ba/F3-KIF5B-RET cell (Homo sapiens, UniProt P07949); experiment: CellTiter-Glo luminescence assay for inhibitory activity against Ba/F3-KIF5B-RET cell; type: cell-based; conditions: Ba/F3-KIF5B-RET cells, 72 h
T1 construct: fused on or other part: P33176 (Kinesin-1 heavy chain)
Source text: (c) In Vitro Screening Experiment—CellTiter-Glo Luminescence Assay for Testing the Inhibitory Activity of Compounds Against Ba/F3-KIF5B-RET Cell Experimental Procedure: 1. The mammalian cell expression vector containing human KIF5B-RET cDNA was introduced into Ba/F3 cells using the Neon® transfection system method, and the surviving clones screened by puromycin were subjected to cell growth inhibitory function experiments and Western blotting to verify cell lines with stable and high expression of RET. 2. […] 3. The test compound (5 mM stock) was diluted 2.5 folds to 2 mM with 100% dimethyl sulfoxide; and the compound was diluted into 10 concentrations at an equal ratio of 1:3 in a 384-well dilution plate. 4. […] 6. […] 7. By fitting the data with XLFit 5.0 based on the parameters formula, the IC50 value was calculated as: Y=Bottom+(Top−Bottom)/(1+10^((Log IC50−X)*HillSlope)).

Sequence of RET (P07949 29-1114): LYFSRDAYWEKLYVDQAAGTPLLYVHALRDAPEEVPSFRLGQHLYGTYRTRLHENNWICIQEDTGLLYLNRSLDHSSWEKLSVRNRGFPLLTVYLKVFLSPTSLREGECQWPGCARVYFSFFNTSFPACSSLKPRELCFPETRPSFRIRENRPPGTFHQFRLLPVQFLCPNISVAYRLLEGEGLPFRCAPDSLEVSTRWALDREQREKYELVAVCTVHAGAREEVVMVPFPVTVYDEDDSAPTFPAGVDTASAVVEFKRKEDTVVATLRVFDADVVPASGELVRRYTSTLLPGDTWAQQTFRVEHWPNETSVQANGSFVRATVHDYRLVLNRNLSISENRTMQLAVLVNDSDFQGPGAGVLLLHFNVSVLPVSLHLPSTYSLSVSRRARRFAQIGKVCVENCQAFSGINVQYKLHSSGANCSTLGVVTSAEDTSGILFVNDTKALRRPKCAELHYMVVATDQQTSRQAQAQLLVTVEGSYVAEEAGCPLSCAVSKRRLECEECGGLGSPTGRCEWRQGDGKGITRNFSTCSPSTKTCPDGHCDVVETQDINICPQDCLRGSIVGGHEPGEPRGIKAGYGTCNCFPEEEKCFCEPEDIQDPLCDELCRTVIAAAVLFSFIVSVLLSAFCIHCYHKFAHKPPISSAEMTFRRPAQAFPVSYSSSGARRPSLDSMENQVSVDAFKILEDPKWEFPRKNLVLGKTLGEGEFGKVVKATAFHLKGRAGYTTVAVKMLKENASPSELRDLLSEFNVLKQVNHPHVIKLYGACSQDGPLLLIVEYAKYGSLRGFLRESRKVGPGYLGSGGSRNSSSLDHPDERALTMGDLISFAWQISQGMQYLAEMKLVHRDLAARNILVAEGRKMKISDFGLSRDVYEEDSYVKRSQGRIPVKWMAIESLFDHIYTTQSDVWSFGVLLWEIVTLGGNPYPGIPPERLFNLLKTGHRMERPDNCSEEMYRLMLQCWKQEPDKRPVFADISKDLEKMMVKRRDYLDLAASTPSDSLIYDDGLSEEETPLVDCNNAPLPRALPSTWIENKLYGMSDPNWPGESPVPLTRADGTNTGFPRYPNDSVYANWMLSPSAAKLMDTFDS
Sequence of VEGFR2 (P35968 20-1356, species assumed): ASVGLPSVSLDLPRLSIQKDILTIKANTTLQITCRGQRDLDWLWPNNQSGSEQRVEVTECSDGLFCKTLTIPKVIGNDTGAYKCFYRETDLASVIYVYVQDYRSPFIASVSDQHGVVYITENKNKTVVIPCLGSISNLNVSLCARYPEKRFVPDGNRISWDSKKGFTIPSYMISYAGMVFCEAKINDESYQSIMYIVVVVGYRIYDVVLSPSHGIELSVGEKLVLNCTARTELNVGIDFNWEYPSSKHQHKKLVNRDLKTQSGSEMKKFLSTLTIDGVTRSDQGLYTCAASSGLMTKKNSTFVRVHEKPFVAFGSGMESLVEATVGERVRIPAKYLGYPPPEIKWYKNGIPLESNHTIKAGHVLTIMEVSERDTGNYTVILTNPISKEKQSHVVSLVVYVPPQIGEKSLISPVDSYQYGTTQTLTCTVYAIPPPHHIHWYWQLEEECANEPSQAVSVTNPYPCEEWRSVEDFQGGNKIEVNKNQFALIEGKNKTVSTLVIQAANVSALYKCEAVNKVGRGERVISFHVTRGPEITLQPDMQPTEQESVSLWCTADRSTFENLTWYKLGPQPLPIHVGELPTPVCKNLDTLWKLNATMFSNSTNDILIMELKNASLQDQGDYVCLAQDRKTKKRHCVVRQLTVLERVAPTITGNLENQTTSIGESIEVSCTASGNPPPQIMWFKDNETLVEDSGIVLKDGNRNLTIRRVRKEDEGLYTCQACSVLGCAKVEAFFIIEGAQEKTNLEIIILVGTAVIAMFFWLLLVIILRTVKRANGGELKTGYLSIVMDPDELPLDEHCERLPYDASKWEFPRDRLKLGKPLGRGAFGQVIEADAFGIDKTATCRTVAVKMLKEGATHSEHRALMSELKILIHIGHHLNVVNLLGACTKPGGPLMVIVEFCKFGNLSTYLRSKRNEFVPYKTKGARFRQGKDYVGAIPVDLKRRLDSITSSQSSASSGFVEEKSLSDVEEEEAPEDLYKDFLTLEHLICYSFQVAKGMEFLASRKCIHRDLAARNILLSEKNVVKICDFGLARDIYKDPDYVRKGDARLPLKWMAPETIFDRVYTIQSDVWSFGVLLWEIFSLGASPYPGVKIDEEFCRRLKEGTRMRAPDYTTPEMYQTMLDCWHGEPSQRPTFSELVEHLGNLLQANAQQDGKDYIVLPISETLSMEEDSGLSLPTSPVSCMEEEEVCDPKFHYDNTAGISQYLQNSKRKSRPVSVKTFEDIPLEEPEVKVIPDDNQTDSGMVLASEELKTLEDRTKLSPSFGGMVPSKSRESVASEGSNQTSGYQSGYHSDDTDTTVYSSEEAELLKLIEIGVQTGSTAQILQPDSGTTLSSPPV
T1 sequence (P07949 whole entry, stated change not applied, the tested form may be a part): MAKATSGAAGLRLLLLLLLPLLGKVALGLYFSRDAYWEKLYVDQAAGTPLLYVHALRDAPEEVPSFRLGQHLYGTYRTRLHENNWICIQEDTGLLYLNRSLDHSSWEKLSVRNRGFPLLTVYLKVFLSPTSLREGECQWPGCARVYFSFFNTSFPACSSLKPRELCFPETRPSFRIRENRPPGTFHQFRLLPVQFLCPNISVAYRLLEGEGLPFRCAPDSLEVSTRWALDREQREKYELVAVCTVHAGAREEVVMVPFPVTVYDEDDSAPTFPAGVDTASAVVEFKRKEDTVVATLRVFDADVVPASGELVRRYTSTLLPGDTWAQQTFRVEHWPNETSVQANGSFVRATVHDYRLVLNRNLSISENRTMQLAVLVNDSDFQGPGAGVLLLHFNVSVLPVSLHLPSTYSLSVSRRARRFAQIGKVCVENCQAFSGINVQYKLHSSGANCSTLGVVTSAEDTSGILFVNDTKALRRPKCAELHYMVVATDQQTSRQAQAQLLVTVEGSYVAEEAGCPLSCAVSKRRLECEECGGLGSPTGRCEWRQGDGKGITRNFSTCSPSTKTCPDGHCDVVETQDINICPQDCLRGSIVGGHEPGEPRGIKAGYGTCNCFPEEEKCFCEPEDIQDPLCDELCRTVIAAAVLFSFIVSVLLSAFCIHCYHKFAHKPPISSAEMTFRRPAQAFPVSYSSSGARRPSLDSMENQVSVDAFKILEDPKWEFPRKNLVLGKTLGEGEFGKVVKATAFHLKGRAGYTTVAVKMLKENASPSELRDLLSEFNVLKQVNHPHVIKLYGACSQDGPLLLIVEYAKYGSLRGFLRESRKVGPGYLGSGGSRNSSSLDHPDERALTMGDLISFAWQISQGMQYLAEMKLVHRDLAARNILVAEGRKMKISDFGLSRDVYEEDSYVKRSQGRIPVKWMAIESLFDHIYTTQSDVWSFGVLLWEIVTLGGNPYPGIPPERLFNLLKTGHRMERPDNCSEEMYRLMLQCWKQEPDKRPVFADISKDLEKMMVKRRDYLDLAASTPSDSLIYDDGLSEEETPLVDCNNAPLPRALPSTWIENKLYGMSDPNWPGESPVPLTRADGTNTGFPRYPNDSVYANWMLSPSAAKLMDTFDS

| Compound | IC50 (RET) [nM] | IC50 (VEGFR2) [nM] | GI50 (Ba/F3-KIF5B-RET cell) [nM] |
| --- | --- | --- | --- |
| CC[C@@H](c1ccc(-n2cc(F)cn2)nc1)N(C)c1ccc(-c2cc(OCC(C)(C)O)cn3ncc(C#N)c23)cn1 [Compound 44, (S)-4-(6-((1-(6-(4-fluoro-1H-pyrazolyl)pyridin-3-yl)propyl)(methyl)amino)pyridin-3-yl)-6-(2-hydroxy-2-methylpropoxy)pyrazo[1,5-a]pyridine-3-carbonitrile] | 0.26 | 18 | 18.6 |
| Cc1cn(-c2ccc(CNc3ccc(-c4cc(OCC(C)(C)O)cn5ncc(C#N)c45)cn3)cn2)cn1 [Compound 11] | 12.5 | 110 | 613 |
| CN(Cc1ccc(-n2cc(F)cn2)nc1)c1ccc(-c2cc(OCC(C)(C)O)cn3ncc(C#N)c23)cn1 [Compound 56, 4-(6-(((6-(4-fluoro-1H-pyrazol-1-yl)pyridin-3-yl)methyl)(methyl)amino)pyridin-3-yl)-6-(2-hydroxy-2-methylpropoxy)pyrazolo[1,5-a]pyridine-3-carbonitrile] | 0.68 | 30.2 | 13.9 |
| C[C@@H](c1ccc(-n2cc(F)cn2)nc1)N(C)c1ccc(-c2cc(-c3cnn(C)c3)cn3ncc(C#N)c23)cn1 [Compound 29, (S)-6-(1-methyl-1H-pyrazol-4-yl)-4-(6-((1-(6-(4-fluoro-1H-pyrazol-1-yl)pyridine-3-yl)ethyl)(methyl)amino)pyridin-3-yl)pyrazolo[1,5-a]pyridine-3-carbonitrile] | 0.36 | 3.29 | 0.75 |
| C[C@@H](c1ccc(-n2cc(F)cn2)cc1)N(C)c1ccc(-c2cc(OCC(C)(C)C#N)cn3ncc(C#N)c23)cn1 [Compound 17, (S)-6-(2-cyano-2-methylpropoxy)-4-(6-((1-(4-(4-fluoro-1H-pyrazol-1-yl)phenyl)ethyl)(methyl)amino)pyridin-3-yl)pyrazolo[1,5-a]pyridine-3-carbonitrile] | 18.4 | 1210 | 184 |
| CN(C(=O)c1ccc(N2CCCC2)nc1)c1ccc(-c2cc(OCC(C)(C)O)cn3ncc(C#N)c23)cn1 [Compound 64] | > 500 | 2480 | 1120 |
| C[C@@H](c1ccc(-n2cccn2)nc1)N(C)c1ccc(-c2cc(OCC(C)(C)O)cn3ncc(C#N)c23)cn1 [Compound 58, (S)-4-(6-((1-(6-(1H-pyrazol-1-yl)pyridin-3-yl)ethyl)(methyl)amino)pyridin-3-yl)-6-(2-hydroxy-2-methylpropoxy)pyrazolo[1,5-a]pyridine-3-carbonitrile] | 0.5 | 26.5 | 42.8 |
| C[C@@H](c1ccc(-n2cc(F)cn2)nc1)N(C)c1ccc(-c2cc(OCC(F)F)cn3ncc(C#N)c23)cn1 [Compound 34, (S)-4-(6-((1-(6-(4-fluoro-1H-pyrazol-1-yl)pyridin-3-yl)ethyl)(methyl)amino)pyridine-3-yl)-6-(2,2-difluoroethoxy)pyrazolo[1,5-a]pyridine-3-carbonitrile] | 1.55 | 128 | 119 |
| C[C@H](Nc1ccc(-c2cc(OCC(C)(C)O)cn3ncc(C#N)c23)cn1)c1ccc(-n2cc(F)cn2)nc1 [Compound 2, (S)-4-(6-((1-(6-(4-fluoro-1H-pyrazol-1-yl)pyridin-3-yl)ethyl)amino)pyridin-3-yl)-6-(2-hydroxy-2-methylpropoxy)pyrazolo[1,5-a]pyridine-3-carbonitrile] | 0.46 | 3.51 | 10.7 |
| N#Cc1cnn2cc(OC[C@H]3CNCCO3)cc(-c3ccc(NCc4ccc(-n5cc(F)cn5)nc4)nc3)c12 [Compound 3] | 0.19 | 1.08 | 18 |
| C[C@@H](c1ccc(-n2cc(F)cn2)nc1)N(C)c1ccc(-c2cc(C#CC(C)(C)O)cn3ncc(C#N)c23)cn1 [Compound 27, (S)-4-(6-((1-(6-(4-fluoro-1H-pyrazol-1-yl)pyridin-3-yl)ethyl)(methyl)amino)pyridine-3-yl)-6-(3-hydroxy-3-methyl-1-yn-1-yl)pyrazolo[1,5-a]pyridine-3-carbonitrile] | 1.33 | 21.9 | 43.8 |

Further lines, results first:

| IC50 (RET) [nM] | IC50 (VEGFR2) [nM] | GI50 (Ba/F3-KIF5B-RET cell) [nM] | Compound |
| --- | --- | --- | --- |
| 0.99 | 64.6 | 5.85 | C[C@@H](c1ccc(-n2cc(F)cn2)nc1)N(C)c1ccc(-c2cc(N3CC(C)(C#N)C3)cn3ncc(C#N)c23)cn1 [Compound 24] |
| 1.93 | > 5000 | 182 | CCCOc1cc(-c2ccc(N(C)[C@@H](C)c3ccc(-n4cc(F)cn4)nc3)nc2)c2c(C#N)cnn2c1 [Compound 39, (S)-4-(6-((1-(6-(4-fluoro-1H-pyrazol-1-yl)pyridin-3-yl)ethyl)(methyl)amino)pyridine-3-yl)-6-propoxypyrazolo[1,5-a]pyridine-3-carbonitrile] |
| 5.52 | 293 | 432 | C#CCOc1cc(-c2ccc(N(C)[C@@H](C)c3ccc(-n4cc(F)cn4)nc3)nc2)c2c(C#N)cnn2c1 [Compound 53, (S)-4-(6-((1-(6-(4-fluoro-1H-pyrazol-1-yl)pyridin-3-yl)ethyl)(methyl)amino)pyridine-3-yl)-6-(prop-2-yn-1-yloxy)pyrazolo[1,5-a]pyridine-3-carbonitrile] |
| 0.47 | 4.14 | 5.02 | CCNc1cc(-c2ccc(N(C)[C@@H](C)c3ccc(-n4cc(F)cn4)nc3)nc2)c2c(C#N)cnn2c1 [Compound 51, (S)-4-(6-((1-(6-(4-fluoro-1H-pyrazol-1-yl)pyridin-3-yl)ethyl)(methyl)amino)pyridine-3-yl)-6-(ethylamino)pyrazolo[1,5-a]pyridine-3-carbonitrile] |
| 0.42 | 41.1 | 41 | C[C@@H](c1ccc(-n2cc(F)cn2)nc1)N(C)c1ccc(-c2cc(N3CCN(C)CC3)cn3ncc(C#N)c23)cn1 [Compound 19, (S)-4-(6-((1-(6-(4-fluoro-1H-pyrazol-1-yl)pyridin-3-yl)ethyl)(methyl)amino)pyridine-3-yl)-6-(4-methylpiperazin-1-yl)pyrazolo[1,5-a]pyridine-3-carbonitrile] |
| 0.245 | 33 | 7.4 | C[C@@H](c1ccc(-n2cc(F)cn2)nc1)N(C)c1ccc(-c2cc(N3CCOCC3)cn3ncc(C#N)c23)cn1 [Compound 26, (S)-4-(6-((1-(6-(4-fluoro-1H-pyrazol-1-yl)pyridin-3-yl)ethyl)(methyl)amino)pyridine-3-yl)-6-morpholinopyrazolo[1,5-a]pyridine-3-carbonitrile] |
| 1.67 | 156 | 104 | CC(C)Nc1cc(-c2ccc(N(C)[C@@H](C)c3ccc(-n4cc(F)cn4)nc3)nc2)c2c(C#N)cnn2c1 [Compound 50, (S)-4-(6-((1-(6-(4-fluoro-1H-pyrazol-1-yl)pyridin-3-yl)ethyl)(methyl)amino)pyridine-3-yl)-6-(isopropylamino)pyrazolo[1,5-a]pyridine-3-carbonitrile] |
| 0.47 | 175 | 15.1 | CCOc1cc(-c2ccc(N(C)[C@@H](C)c3ccc(-n4cc(F)cn4)nc3)nc2)c2c(C#N)cnn2c1 [Compound 30, (S)-4-(6-((1-(6-(4-fluoro-1H-pyrazol-1-yl)pyridin-3-yl)ethyl)(methyl)amino)pyridine-3-yl)-6-ethoxypyrazolo[1,5-a]pyridine-3-carbonitrile] |
| 0.82 | 74.9 | 18.1 | C[C@@H](c1ccc(-n2cc(F)cn2)nc1)N(C)c1ccc(-c2cc(N3CCC(C)(O)CC3)cn3ncc(C#N)c23)cn1 [Compound 23, (S)-4-(6-((1-(6-(4-fluoro-1H-pyrazol-1-yl)pyridin-3-yl)ethyl)(methyl)amino)pyridine-3-yl)-6-(4-hydroxy-4-methylpiperidin-1-yl)pyrazolo[1,5-a]pyridine-3-carbonitrile] |
| 0.73 | 80.5 | 13.6 | C[C@@H](c1ccc(-n2cc(F)cn2)nc1)N(C)c1ccc(-c2cc(OCC3(O)CC3)cn3ncc(C#N)c23)cn1 [Compound 46, (S)-4-(6-((1-(6-(4-fluoro-1H-pyrazolyl)pyridin-3-yl)ethyl)(methyl)amino)pyridin-3-yl)-6-((1-hydroxycyclopropyl)methoxy)pyrazolo[1,5-a]pyridine-3-carbonitrile] |
